Source: the kinase profiling compilation of Christmann-Franck et al. (2016)

Experiments:
Test in all cases: radiometric filter-binding kinase assay, Kinase HotSpot
Details in all cases: compound 0.5 µM; ATP 10 µM
[1] = target: CDK1 CCNB1 (human) (UniProt P06493+P14635)
[2] = target: EPHB3 (human) (UniProt P54753)
[3] = target: PAK1 (human) (UniProt Q13153)
[4] = target: DYRK1A (human) (UniProt Q13627)
[5] = target: MYO3B (human) (UniProt Q8WXR4)
[6] = target: LRRK2 (human) (UniProt Q5S007)
[7] = target: EPHA6 (human) (UniProt Q9UF33)
Chain of EPHA6 (human) (Q9UF33 whole entry, looked up): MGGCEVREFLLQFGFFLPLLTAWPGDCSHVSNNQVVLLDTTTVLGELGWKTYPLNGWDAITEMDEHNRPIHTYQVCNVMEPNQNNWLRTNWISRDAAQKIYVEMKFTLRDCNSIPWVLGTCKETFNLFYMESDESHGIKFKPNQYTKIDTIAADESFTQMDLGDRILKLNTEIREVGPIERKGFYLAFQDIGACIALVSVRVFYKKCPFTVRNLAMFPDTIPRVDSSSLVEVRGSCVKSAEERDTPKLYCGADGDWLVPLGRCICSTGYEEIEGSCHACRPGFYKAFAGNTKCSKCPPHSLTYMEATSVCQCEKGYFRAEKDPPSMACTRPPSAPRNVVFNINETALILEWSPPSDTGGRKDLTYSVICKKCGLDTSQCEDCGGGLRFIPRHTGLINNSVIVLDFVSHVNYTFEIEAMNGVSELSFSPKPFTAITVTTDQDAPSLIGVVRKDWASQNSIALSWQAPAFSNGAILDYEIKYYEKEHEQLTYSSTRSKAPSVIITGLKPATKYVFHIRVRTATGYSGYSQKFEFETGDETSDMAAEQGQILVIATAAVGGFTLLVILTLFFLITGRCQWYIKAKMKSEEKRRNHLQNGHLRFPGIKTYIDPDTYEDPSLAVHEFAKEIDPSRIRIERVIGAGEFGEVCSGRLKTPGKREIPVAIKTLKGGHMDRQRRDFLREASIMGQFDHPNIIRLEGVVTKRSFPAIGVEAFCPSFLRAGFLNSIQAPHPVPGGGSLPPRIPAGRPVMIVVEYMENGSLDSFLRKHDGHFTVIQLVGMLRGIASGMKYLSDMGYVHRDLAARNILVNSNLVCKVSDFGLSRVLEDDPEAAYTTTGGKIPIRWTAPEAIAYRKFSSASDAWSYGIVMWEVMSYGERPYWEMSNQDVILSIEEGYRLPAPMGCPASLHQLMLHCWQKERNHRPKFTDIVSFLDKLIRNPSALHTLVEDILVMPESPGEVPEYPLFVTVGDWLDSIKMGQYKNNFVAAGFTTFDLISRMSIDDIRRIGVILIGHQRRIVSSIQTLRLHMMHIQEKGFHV

[8] = target: ACVR1 (human) (UniProt Q04771)
[9] = target: ULK1 (human) (UniProt O75385)
Chain of ULK1 (human) (O75385 whole entry, looked up): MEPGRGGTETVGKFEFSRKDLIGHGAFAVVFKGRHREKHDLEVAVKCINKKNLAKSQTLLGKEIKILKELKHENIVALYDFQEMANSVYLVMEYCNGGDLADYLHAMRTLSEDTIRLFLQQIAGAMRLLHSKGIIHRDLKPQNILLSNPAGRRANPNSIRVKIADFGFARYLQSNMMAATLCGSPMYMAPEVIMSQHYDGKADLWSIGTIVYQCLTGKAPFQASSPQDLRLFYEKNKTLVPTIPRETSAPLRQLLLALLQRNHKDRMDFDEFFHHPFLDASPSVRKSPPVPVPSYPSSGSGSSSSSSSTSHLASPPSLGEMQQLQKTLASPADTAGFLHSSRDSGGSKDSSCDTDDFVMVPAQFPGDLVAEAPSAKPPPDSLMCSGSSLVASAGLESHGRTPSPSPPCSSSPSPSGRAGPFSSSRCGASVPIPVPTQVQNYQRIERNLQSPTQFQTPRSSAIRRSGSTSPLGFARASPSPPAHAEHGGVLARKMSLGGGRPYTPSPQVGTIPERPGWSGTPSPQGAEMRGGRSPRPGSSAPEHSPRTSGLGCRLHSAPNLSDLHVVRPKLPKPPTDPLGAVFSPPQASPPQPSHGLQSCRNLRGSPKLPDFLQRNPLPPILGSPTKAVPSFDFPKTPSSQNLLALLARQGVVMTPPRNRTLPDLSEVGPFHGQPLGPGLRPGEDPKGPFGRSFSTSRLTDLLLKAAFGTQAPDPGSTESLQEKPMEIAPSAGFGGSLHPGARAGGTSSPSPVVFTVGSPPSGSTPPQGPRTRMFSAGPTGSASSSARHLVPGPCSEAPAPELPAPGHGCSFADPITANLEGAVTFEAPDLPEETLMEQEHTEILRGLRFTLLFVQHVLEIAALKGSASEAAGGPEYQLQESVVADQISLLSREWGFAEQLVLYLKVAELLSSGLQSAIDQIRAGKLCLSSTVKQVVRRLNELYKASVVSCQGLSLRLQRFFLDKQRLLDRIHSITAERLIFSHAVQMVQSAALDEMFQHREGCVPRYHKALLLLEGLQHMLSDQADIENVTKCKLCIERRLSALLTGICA

[10] = target: ADRBK1 (human) (UniProt P25098)
[11] = target: ITK (human) (UniProt Q08881)
[12] = target: MAP2K1 (human) (UniProt Q02750)
[13] = target: CHUK (human) (UniProt O15111)
[14] = target: PIM2 (human) (UniProt Q9P1W9)
Chain of PIM2 (human) (Q9P1W9 whole entry, looked up): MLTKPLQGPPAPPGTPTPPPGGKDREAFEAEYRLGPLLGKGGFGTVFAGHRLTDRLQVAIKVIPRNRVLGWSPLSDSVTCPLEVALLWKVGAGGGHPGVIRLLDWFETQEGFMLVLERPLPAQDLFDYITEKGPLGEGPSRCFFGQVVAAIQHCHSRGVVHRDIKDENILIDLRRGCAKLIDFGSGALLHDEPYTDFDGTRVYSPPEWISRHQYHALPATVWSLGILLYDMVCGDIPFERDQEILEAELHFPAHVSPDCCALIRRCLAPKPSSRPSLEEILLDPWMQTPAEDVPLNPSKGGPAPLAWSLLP

[15] = target: TXK (human) (UniProt P42681)
[16] = target: TLK2 (human) (UniProt Q86UE8)
[17] = target: NEK9 (human) (UniProt Q8TD19)
[18] = target: SGK3 (human) (UniProt Q96BR1)
[19] = target: ERBB2 (human) (UniProt P04626)
[20] = target: TSSK2 (human) (UniProt Q96PF2)
Chain of TSSK2 (human) (Q96PF2 whole entry, looked up): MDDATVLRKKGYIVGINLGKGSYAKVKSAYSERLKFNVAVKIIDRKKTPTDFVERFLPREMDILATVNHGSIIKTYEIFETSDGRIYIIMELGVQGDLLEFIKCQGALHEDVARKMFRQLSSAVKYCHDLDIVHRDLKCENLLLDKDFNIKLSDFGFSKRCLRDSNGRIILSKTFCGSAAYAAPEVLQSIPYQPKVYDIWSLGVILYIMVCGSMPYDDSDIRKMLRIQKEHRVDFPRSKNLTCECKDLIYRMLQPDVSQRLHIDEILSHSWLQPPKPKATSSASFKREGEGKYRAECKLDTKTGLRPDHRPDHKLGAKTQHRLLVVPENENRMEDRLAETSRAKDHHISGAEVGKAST

[21] = target: PRKCI (human) (UniProt P41743)
[22] = target: STK10 (human) (UniProt O94804)
[23] = target: STK38 (human) (UniProt Q15208)
[24] = target: NEK6 (human) (UniProt Q9HC98)
[25] = target: IKBKB (human) (UniProt O14920)
Chain of IKBKB (human) (O14920 whole entry, looked up): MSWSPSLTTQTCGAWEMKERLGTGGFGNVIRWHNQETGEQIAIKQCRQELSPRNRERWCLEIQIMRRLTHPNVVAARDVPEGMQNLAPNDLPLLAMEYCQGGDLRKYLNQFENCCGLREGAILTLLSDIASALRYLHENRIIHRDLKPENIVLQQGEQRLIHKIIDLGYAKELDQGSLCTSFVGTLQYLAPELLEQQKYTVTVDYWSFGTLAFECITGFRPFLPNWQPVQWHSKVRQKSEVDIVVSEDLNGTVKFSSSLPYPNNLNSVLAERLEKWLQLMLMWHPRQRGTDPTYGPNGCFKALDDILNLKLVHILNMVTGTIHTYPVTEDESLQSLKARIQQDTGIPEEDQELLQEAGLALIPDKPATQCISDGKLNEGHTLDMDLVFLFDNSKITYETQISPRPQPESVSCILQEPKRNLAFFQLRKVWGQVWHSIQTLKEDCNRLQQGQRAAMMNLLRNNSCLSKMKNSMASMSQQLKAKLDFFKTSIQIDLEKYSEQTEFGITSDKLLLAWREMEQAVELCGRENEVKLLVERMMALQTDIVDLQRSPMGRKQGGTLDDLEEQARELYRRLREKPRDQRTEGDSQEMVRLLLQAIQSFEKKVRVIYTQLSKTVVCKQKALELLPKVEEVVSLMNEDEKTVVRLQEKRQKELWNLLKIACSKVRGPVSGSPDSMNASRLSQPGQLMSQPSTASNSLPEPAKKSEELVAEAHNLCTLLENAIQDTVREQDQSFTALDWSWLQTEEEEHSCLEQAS

[26] = target: TNK2 (human) (UniProt Q07912)
[27] = target: ROCK2 (human) (UniProt O75116)
[28] = target: CDC42BPB (human) (UniProt Q9Y5S2)
[29] = target: CAMK1G (human) (UniProt Q96NX5)
[30] = target: DAPK3 (human) (UniProt O43293)
[31] = target: FGR (human) (UniProt P09769)
[32] = target: ABL1 (human) (UniProt P00519)
[33] = target: STK3 (human) (UniProt Q13188)
Chain of STK3 (human) (Q13188 whole entry, looked up): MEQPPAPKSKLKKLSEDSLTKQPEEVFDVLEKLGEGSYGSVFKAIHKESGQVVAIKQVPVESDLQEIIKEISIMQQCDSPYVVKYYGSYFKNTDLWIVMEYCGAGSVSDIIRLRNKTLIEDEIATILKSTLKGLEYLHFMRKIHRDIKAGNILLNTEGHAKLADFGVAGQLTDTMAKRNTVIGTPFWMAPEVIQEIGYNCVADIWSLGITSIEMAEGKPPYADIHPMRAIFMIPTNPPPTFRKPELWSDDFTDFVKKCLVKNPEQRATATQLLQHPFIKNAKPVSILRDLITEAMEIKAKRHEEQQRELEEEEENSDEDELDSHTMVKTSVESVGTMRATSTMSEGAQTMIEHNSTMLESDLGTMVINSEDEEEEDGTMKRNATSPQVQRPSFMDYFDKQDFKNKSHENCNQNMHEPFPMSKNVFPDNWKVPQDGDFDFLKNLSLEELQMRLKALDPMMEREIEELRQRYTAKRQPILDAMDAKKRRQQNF

[34] = target: ULK3 (human) (UniProt Q6PHR2)
[35] = target: PDPK1 (human) (UniProt O15530)
[36] = target: RET (human) (UniProt P07949)
[37] = target: ADRBK2 (human) (UniProt P35626)
Chain of ADRBK2 (human) (P35626 whole entry, looked up): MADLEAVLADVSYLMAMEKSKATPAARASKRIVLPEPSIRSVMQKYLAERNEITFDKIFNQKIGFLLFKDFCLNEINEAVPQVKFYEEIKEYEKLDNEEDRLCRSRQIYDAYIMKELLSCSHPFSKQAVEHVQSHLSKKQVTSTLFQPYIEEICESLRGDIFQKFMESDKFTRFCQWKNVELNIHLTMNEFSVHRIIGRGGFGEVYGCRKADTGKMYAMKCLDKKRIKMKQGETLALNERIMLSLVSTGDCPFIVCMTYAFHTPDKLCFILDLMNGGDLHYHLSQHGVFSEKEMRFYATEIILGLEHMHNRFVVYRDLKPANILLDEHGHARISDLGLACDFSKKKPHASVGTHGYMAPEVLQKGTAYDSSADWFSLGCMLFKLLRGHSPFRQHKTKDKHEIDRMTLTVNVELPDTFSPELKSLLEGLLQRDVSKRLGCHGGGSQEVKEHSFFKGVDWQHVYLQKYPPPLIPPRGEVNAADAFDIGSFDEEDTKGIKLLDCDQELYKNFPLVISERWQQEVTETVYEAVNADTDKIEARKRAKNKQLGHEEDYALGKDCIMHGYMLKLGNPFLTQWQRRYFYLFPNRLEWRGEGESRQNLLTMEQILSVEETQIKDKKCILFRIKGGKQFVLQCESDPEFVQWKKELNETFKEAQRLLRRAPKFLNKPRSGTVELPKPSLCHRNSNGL

[38] = target: BRAF (human) (UniProt P15056)
[39] = target: PRKACG (human) (UniProt P22612)
Chain of PRKACG (human) (P22612 whole entry, looked up): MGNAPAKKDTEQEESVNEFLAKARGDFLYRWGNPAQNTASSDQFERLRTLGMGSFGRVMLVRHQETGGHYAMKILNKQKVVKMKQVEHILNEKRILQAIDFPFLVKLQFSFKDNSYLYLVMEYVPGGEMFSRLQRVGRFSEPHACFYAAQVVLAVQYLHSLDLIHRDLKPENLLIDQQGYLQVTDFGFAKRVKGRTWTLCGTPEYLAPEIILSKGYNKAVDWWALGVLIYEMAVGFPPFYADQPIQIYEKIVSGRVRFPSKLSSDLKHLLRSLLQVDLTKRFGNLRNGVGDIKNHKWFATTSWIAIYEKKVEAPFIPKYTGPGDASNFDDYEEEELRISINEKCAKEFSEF

[40] = target: DYRK2 (human) (UniProt Q92630)
[41] = target: NTRK1 (human) (UniProt P04629)

## COc1cc2ncc(-c3ccccc3)nc2cc1OC
[1]
  residual activity: 105%
[2]
  residual activity: 88.6%
[3]
  residual activity: 91.3%
[4]
  residual activity: 97.2%
[5]
  residual activity: 84.6%
[6]
  residual activity: 84.9%
[7]
  residual activity: 90.4%
[8]
  residual activity: 99.3%
[9]
  residual activity: 84.5%
[10]
  residual activity: 95.8%
[11]
  residual activity: 97.8%
[12]
  residual activity: 97.6%
[13]
  residual activity: 113%
[14]
  residual activity: 101%
[15]
  residual activity: 93.4%
[16]
  residual activity: 96.3%
[17]
  residual activity: 93.5%
[18]
  residual activity: 89.7%
[19]
  residual activity: 116%
[20]
  residual activity: 85.7%
[21]
  residual activity: 82.1%
[22]
  residual activity: 89.6%
[23]
  residual activity: 95.9%
[24]
  residual activity: 93.8%
[25]
  residual activity: 101%
[26]
  residual activity: 93.2%
[27]
  residual activity: 96.1%
[28]
  residual activity: 93.3%
[29]
  residual activity: 95.1%
[30]
  residual activity: 84.7%
[31]
  residual activity: 85.4%
[32]
  residual activity: 94.1%
[33]
  residual activity: 95.7%
[34]
  residual activity: 89.4%
[35]
  residual activity: 92.6%
[36]
  residual activity: 84.4%
[37]
  residual activity: 94.3%
[38]
  residual activity: 93.2%
[39]
  residual activity: 87.6%
[40]
  residual activity: 95.9%
[41]
  residual activity: 93.2%

## CN(C)C[C@H]1CCn2c(c(C3=C(c4cn(C)c5ccccc45)C(=O)NC3=O)c3ccccc32)C1
[1]
  residual activity: 53.7%
[2]
  residual activity: 105%
[3]
  residual activity: 99.8%
[4]
  residual activity: 88.7%
[5]
  residual activity: 87.9%
[6]
  residual activity: 93.1%
[7]
  residual activity: 100%
[8]
  residual activity: 93.3%
[9]
  residual activity: 98.9%
[10]
  residual activity: 103%
[11]
  residual activity: 94.9%
[12]
  residual activity: 98.8%
[13]
  residual activity: 103%
[14]
  residual activity: 102%
[15]
  residual activity: 103%
[16]
  residual activity: 88.4%
[17]
  residual activity: 97.6%
[18]
  residual activity: 95%
[19]
  residual activity: 95.9%
[20]
  residual activity: 97.1%
[21]
  residual activity: 36.2%
[22]
  residual activity: 26.6%
[23]
  residual activity: 96.7%
[24]
  residual activity: 94.6%
[25]
  residual activity: 105%
[26]
  residual activity: 96.3%
[27]
  residual activity: 98.9%
[28]
  residual activity: 103%
[29]
  residual activity: 95.8%
[30]
  residual activity: 95.2%
[31]
  residual activity: 97.2%
[32]
  residual activity: 98%
[33]
  residual activity: 102%
[34]
  residual activity: 88.9%
[35]
  residual activity: 97%
[36]
  residual activity: 99.7%
[37]
  residual activity: 102%
[38]
  residual activity: 95.2%
[39]
  residual activity: 108%
[40]
  residual activity: 102%
[41]
  residual activity: 108%

## O=C(CCCc1ccc(-c2ccccc2F)cc1)Nc1ccc(O)cc1
[1]
  residual activity: 102%
[2]
  residual activity: 96.5%
[3]
  residual activity: 95.4%
[4]
  residual activity: 106%
[5]
  residual activity: 96.3%
[6]
  residual activity: 98%
[7]
  residual activity: 89.6%
[8]
  residual activity: 95.2%
[9]
  residual activity: 106%
[10]
  residual activity: 105%
[11]
  residual activity: 85%
[12]
  residual activity: 104%
[13]
  residual activity: 97.3%
[14]
  residual activity: 115%
[15]
  residual activity: 97.7%
[16]
  residual activity: 84.1%
[17]
  residual activity: 92.7%
[18]
  residual activity: 106%
[19]
  residual activity: 101%
[20]
  residual activity: 115%
[21]
  residual activity: 95.5%
[22]
  residual activity: 95.3%
[23]
  residual activity: 109%
[24]
  residual activity: 99.4%
[25]
  residual activity: 101%
[26]
  residual activity: 99.2%
[27]
  residual activity: 90.5%
[28]
  residual activity: 109%
[29]
  residual activity: 96.8%
[30]
  residual activity: 104%
[31]
  residual activity: 96%
[32]
  residual activity: 101%
[33]
  residual activity: 94.8%
[34]
  residual activity: 103%
[35]
  residual activity: 112%
[36]
  residual activity: 111%
[37]
  residual activity: 100%
[38]
  residual activity: 93%
[39]
  residual activity: 93.5%
[40]
  residual activity: 91.8%
[41]
  residual activity: 103%
